Test results taken from ChEMBL document CHEMBL1201862, “PubChem BioAssay data set” (2004).
The source made the active and inactive calls.

How the values were obtained:
[1] = target: T1, Aminopeptidase N (Plasmodium falciparum FcB1/Columbia, UniProt O96935); assay: malaria alanyl aminopeptidase activity blockers – biochemical, fluorogenic H-Leu-NHMec substrate, 1536-well (AID 1445); set-up: species or system Plasmodium falciparum 3D7, 3D7
T1 sequence (O96935 whole entry): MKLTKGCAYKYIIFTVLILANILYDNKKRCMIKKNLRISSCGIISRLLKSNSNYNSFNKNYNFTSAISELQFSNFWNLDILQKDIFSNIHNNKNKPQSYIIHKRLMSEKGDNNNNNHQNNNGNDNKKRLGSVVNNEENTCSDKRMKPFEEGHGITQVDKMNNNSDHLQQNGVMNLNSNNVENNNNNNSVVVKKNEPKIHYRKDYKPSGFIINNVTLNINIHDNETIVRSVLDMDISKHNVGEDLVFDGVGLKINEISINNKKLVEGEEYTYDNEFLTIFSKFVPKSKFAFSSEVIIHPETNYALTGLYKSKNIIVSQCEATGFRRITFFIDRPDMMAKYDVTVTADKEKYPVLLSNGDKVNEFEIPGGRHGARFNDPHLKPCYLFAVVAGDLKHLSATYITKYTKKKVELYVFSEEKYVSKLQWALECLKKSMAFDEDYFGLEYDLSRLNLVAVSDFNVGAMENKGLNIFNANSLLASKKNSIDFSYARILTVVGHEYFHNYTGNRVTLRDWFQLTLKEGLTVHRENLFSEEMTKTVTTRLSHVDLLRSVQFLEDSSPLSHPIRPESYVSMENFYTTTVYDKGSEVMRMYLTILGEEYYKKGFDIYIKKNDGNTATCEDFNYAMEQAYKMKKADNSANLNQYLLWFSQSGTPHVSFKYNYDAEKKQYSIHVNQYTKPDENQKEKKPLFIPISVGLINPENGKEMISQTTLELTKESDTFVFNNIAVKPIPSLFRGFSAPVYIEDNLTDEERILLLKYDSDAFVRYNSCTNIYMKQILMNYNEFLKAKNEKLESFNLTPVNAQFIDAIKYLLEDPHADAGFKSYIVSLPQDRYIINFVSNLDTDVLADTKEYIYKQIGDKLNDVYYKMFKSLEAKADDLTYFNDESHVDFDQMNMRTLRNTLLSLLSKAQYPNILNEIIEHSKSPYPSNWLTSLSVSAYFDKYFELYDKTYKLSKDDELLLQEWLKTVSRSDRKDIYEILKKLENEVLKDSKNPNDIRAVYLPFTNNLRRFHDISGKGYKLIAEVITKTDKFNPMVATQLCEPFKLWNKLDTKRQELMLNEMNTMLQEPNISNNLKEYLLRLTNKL

[2] = target: T2, Kappa-type opioid receptor (Homo sapiens, UniProt P41145); type: functional
[3] = target: Beta-galactosidase (Escherichia coli, UniProt Q8VNN2); type: functional
[4] = target: T2, Kappa-type opioid receptor; type: functional; remark: listed apart in the source
[5] = system: CHO; assay: CHO cell viability loss, potency – luminescence, cytotoxicity control for TLR9-MyD88 binding inhibitor project, dose response (AID 588339); type: functional, cell-based, hamster; conditions: Cricetulus griseus;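 note: CHO cells stably coexpressing TLR9 and MyD88 fusions from primary screen; compound exposure lasted 48 hours before viability readout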
[6] = target: Beta Lactamase (Pseudomonas aeruginosa, UniProt Q932Y6); assay: BLA reporter interference, concentration series – BLA reporter cells, FRET fluorescence, artefact control for TLR9-MyD88 binding inhibitor project, dose response (AID 588341); type: cell-based;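 note: cell based assay in CHO-K1 cells stably expressing beta-lactamase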
[7] = system: INS1; assay: INS-1E survival protection against cytokine death – cell-based, luminescence, retest, dose response (AID 449756); type: functional; conditions: Rattus norvegicus;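 note: cell death triggered by IL-1 beta plus TNF-alpha plus IFN-gamma mixture; protective hits raise ATP signal compared with cytokine alone wells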
[8] = target: Dual specificity tyrosine-phosphorylation-regulated kinase 1A (Rattus norvegicus, UniProt Q63470); type: biochemical, Homo sapiens
[9] = Fluorescence-based cell-based high throughput dose response assay for inhibitors of the interaction of nucleotide-binding oligomerization domain containing 2 (NOD2) and the receptor-interacting serine-threonine kinase 2 (RIPK2).; type: functional; conditions: Homo sapiens
[10] = target: Envelope glycoprotein gp160 (Human immunodeficiency virus 1, UniProt Q6QLK5); assay: cell-free HIV fusion peptide-binding blockers – biochemical, uHTS, fluorescence dequenching, […] (AID 1986)
[11] = system: Streptococcus sp. 'group A'; assay: Streptococcus pyogenes SK(-)GAS viability under kanamycin – luminescence, BacTiterGlo, confirmation, counter-screen for streptokinase expression inhibitor project, dose response (AID 1900); type: functional, organism-based
[12] = CCR5-tropic HIV-1 fusion blockers – cell-based, CCR5-tropic Env, dose response (AID 2279); type: functional
[13] = system: Streptococcus; assay: GAS UMAA2166 growth inhibition – luminescence, BacTiterGlo, counter-screen for streptokinase expression inhibitor project, dose response (AID 1915); type: functional, organism-based;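 note: potency for reduction of bacterial viability or growth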
[14] = target: T3, Long-chain-fatty-acid--AMP ligase FadD28 (Mycobacterium tuberculosis, UniProt P9WQ59); assay: Fluorescence polarization aasay to screen for inhibitors that compete for the binding of FadD28 to a bisubstrate Measured in Biochemical System Using Plate Reader - 2147-01_Inhibitor_Dose_CherryPick_Activity.; type: functional, Mycobacterium tuberculosis H37Rv
T3 sequence (P9WQ59 whole entry): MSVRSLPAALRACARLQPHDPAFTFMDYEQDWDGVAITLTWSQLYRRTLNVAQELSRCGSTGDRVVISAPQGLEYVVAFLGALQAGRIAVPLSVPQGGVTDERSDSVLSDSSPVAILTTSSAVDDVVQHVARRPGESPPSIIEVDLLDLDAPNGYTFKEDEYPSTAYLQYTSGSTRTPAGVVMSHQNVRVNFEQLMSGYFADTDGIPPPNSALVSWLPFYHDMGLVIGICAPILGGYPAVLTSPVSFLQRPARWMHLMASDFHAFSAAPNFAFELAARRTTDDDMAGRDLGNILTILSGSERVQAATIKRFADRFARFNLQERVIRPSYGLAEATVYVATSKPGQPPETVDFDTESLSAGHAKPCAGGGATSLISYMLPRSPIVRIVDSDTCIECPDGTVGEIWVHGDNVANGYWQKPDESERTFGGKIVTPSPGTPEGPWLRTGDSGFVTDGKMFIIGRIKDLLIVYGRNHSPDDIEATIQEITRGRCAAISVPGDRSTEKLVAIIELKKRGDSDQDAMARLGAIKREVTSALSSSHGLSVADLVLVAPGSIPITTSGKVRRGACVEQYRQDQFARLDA

[15] = target: T4, Tyrosine-protein phosphatase non-receptor type 7 (Homo sapiens, UniProt P35236); type: functional
T4 sequence (P35236 whole entry): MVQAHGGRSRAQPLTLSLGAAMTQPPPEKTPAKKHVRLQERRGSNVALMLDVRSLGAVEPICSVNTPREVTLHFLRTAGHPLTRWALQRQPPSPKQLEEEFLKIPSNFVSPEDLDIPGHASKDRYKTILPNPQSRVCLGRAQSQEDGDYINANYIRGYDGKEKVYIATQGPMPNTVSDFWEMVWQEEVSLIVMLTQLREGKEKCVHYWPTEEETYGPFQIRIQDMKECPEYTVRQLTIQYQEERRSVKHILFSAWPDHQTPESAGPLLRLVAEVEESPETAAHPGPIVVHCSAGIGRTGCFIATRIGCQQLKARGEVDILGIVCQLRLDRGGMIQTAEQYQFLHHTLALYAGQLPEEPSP

[16] = target: T5, Tyrosine-protein phosphatase non-receptor type 22 (Homo sapiens, UniProt Q9Y2R2); assay: PTPN22 lymphoid phosphatase activity blockers – biochemical, fluorescence intensity, uHTS (AID 1779)
T5 sequence (Q9Y2R2 whole entry): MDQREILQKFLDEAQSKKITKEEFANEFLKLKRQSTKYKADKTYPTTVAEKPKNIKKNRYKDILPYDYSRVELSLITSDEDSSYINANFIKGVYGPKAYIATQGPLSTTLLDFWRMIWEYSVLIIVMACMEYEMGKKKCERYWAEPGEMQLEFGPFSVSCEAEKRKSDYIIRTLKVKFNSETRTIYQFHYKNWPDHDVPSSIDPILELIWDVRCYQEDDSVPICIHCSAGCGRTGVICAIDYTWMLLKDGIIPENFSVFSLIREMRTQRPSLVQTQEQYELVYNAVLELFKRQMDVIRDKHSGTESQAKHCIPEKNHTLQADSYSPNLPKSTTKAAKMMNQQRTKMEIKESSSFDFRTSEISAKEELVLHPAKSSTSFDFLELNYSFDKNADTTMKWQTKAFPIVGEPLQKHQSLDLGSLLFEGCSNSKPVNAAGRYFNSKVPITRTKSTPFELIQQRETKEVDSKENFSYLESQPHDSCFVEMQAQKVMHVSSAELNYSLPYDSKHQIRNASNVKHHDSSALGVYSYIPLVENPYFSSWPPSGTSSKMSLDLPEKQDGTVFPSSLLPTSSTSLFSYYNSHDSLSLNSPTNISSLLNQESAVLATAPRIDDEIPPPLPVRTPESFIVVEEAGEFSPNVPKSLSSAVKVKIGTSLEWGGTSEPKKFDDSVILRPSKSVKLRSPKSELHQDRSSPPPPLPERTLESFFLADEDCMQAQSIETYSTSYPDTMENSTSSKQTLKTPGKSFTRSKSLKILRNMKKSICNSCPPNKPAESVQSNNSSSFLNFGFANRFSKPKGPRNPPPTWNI

[17] = target: T5, Tyrosine-protein phosphatase non-receptor type 22; type: functional
[18] = target: T5, Tyrosine-protein phosphatase non-receptor type 22; type: functional; remark: listed apart in the source
[19] = target: T6, Carboxy-terminal domain RNA polymerase II polypeptide A small phosphatase 1 (Homo sapiens, UniProt Q9GZU7); assay: CTDSP1 inhibitors, concentration-response, biochemical, absorbance readout, ultra-high-throughput screen actives (AID 540297); type: functional
T6 sequence (Q9GZU7 whole entry): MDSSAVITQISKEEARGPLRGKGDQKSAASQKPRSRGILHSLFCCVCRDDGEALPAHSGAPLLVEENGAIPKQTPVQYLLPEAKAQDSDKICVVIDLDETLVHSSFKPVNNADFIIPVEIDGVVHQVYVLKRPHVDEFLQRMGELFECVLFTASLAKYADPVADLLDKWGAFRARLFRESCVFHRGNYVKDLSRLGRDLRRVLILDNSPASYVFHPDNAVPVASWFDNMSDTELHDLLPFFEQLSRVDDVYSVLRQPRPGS

T2 sequence (P41145 whole entry): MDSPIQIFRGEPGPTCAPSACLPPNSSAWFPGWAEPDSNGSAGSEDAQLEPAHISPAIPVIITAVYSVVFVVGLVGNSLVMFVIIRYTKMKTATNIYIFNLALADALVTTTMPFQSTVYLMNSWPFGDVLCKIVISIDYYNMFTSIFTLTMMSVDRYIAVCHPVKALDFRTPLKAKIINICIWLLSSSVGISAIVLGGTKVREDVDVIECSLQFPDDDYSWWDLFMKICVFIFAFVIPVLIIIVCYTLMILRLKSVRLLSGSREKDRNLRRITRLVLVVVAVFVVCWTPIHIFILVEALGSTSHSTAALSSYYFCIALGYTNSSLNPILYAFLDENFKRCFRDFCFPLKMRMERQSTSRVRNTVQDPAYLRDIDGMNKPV
Sequence of Beta-galactosidase (Q8VNN2 whole entry): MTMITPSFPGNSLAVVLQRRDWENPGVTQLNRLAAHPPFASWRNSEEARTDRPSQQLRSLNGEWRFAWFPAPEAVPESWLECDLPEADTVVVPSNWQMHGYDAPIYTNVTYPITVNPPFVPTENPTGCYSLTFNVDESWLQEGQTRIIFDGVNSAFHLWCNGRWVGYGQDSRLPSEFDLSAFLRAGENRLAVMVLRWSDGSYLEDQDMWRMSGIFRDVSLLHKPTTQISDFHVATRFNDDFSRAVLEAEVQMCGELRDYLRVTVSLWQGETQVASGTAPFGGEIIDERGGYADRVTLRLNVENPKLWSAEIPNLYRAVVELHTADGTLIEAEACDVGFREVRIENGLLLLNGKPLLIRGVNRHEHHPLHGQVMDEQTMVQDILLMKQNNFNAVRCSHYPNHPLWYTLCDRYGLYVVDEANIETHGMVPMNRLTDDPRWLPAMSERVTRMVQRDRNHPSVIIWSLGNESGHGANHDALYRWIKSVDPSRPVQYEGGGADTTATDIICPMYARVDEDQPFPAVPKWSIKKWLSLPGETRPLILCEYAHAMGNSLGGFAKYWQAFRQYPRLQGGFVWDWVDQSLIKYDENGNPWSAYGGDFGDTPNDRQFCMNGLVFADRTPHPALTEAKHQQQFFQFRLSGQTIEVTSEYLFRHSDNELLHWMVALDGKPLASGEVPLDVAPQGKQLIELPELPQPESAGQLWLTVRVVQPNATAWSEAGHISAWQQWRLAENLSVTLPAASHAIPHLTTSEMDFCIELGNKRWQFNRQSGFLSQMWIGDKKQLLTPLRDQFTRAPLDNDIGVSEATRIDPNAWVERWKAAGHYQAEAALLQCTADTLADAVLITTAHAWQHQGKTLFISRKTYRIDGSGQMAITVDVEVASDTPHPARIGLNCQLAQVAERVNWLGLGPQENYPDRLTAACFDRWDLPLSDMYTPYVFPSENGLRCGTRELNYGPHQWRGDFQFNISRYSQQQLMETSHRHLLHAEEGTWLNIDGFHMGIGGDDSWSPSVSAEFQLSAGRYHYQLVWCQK
Sequence of Beta Lactamase (Q932Y6 whole entry): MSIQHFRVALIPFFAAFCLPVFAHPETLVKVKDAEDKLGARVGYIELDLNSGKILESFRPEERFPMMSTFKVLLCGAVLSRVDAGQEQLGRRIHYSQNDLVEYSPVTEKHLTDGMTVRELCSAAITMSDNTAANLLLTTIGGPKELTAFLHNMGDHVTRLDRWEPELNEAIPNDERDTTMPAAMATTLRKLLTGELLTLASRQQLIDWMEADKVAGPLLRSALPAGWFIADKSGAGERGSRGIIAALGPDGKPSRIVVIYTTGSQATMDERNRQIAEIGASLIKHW
Sequence of Envelope glycoprotein gp160 (Q6QLK5 whole entry, the tested form may be a part): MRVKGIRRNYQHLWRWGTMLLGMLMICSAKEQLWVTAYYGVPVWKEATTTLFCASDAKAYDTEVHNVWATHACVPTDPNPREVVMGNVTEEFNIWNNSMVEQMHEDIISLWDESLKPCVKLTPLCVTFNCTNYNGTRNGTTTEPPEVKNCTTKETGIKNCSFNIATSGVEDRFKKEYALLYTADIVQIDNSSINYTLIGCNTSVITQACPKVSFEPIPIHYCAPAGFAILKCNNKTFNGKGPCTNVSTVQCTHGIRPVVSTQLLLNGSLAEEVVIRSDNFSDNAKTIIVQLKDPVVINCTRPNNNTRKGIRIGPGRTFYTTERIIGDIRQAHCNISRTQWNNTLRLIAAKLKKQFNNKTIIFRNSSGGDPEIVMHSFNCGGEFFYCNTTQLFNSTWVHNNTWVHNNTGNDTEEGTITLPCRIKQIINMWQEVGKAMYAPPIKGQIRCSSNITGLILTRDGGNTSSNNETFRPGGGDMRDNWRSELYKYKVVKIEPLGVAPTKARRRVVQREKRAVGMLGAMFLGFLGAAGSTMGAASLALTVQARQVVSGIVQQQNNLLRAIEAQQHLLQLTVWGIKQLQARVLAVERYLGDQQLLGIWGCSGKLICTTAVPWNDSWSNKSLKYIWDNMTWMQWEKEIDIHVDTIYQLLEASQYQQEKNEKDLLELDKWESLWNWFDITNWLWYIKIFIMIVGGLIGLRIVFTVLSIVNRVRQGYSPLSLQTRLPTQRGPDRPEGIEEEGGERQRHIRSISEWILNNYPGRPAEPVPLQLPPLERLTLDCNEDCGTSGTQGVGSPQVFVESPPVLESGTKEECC

In the case of `N#CC(C#N)=C1C=CC=CN1/C(=C\c1ccco1)C(=O)c1ccccc1`, the IC50 [1] is reported as 65.2 µM (active), the IC50 [2] is reported as 4.86 µM (active) and the EC50 [3] is reported as > 31.5 µM (inactive). For the same molecule, the IC50 [4] was 18.9 µM, the IC50 [5] was 1.64 µM (active) and the IC50 [6] was 15.9 µM (inactive). The AC50 [7] was 7.4 µM (active), the AC50 [8] was 5.46 µM (active) and the IC50 [9] was 1.02 µM (active).
In the case of `Oc1cc(-c2ccccc2)nc2c(-c3ccccc3)c(C(F)(F)F)nn12`, the IC50 [10] is reported as 17.5 µM (active), the EC50 [11] is reported as 3.47 µM (active) and the IC50 [12] is reported as > 50 µM (active). For the same molecule, the EC50 [13] was 4.84 µM (active) and the AC50 [14] was 54.1 µM (active).
For `CCOc1cc(/C=C2/NC(=O)NC2=O)cc(Br)c1OCc1ccc(C(=O)O)cc1`, the IC50 [15] was 4.2 µM (active), the IC50 [16] was 8.82 µM (active) and the IC50 [17] was 5.76 µM (active). The IC50 [18] was 2.39 µM (active) and the IC50 [19] was 5.9 µM (active).
